How the values were obtained:
[1] = test system: Plasmodium falciparum; test: Antimalarial activity against Plasmodium falciparum W2 by [3H]hypoxanthine uptake; type: functional, organism-based
[2] = Cytotoxicity against mouse J774 cells assessed as cell viability at 0.1 ug/mL after 24 hrs by MTT assay; type: cell-based; conditions: read-out: Activity
[3] = Cytotoxicity against mouse J774 cells assessed as cell viability at 1 ug/mL after 24 hrs by MTT assay; type: cell-based; conditions: read-out: Activity
[4] = Cytotoxicity against mouse J774 cells assessed as cell viability at 10 ug/mL after 24 hrs by MTT assay; type: cell-based; conditions: read-out: Activity
[5] = Cytotoxicity against mouse J774 cells assessed as cell viability at 100 ug/mL after 24 hrs by MTT assay; type: cell-based; conditions: read-out: Activity
[6] = test system: Plasmodium falciparum; test: Antimalarial activity against chloroquine-sensitive Plasmodium falciparum 3D7 by [3H]hypoxanthine uptake; type: functional, organism-based

Row | SMILES | IC50 [1] [µM] | viability at 24 h, 0.1 ug/mL [2] [%] | viability at 24 h, 1 ug/mL [3] [%] | viability at 24 h, 10 ug/mL [4] [%] | viability at 24 h, 100 ug/mL [5] [%] | IC50 [6] [µM]
1 | Cc1ccc(S(=O)(=O)N[C@@H](Cc2ccccc2)[C@H](O)CN2CCN(Cc3ccc([N+](=O)[O-])cc3)CC2)cc1 | > 90 | 91 | 100 | 93 | 92 | –
2 | O=[N+]([O-])c1ccc(S(=O)(=O)N[C@@H](Cc2ccccc2)[C@H](O)CN2CCN(Cc3ccc4c(c3)OCO4)CC2)cc1 | 44 | 100 | 100 | 100 | 40 | –
3 | Nc1ccc(S(=O)(=O)N[C@@H](Cc2ccccc2)[C@H](O)CN2CCN(Cc3ccc4c(c3)OCO4)CC2)cc1 | 4.8 | 100 | 100 | 99 | 55 | 4.6
4 | Cc1ccc(S(=O)(=O)N[C@@H](Cc2ccccc2)[C@H](O)CN2CCN(Cc3ccc(Cl)cc3)CC2)cc1 | 35.1 | 100 | 98 | 90 | 22 | –
5 | O=C(N[C@@H](Cc1ccccc1)[C@H](O)CN1CCN(Cc2ccc3c(c2)OCO3)CC1)c1ccc2c(c1)OCO2 | 25.4 | 100 | 100 | 95 | 61 | –
6 | Cc1ccc(S(=O)(=O)N[C@@H](Cc2ccccc2)[C@H](O)CN2CCN(Cc3ccc(F)cc3)CC2)cc1 | 43 | 100 | 100 | 92 | 15 | –
7 | Cc1c(O)cccc1C(=O)N[C@@H](Cc1ccccc1)[C@H](O)CN1CCN(Cc2ccc3c(c2)OCO3)CC1 | 5.9 | 100 | 75 | 8 | 8 | –
8 | Cc1ccc(S(=O)(=O)N[C@@H](Cc2ccccc2)[C@H](O)CN2CCN(Cc3ccccc3)CC2)cc1 | > 90 | 100 | 86 | 88 | 5 | –
9 | COc1ccc(S(=O)(=O)N[C@@H](Cc2ccccc2)[C@H](O)CN2CCN(Cc3ccc4c(c3)OCO4)CC2)cc1 | 34.3 | 100 | 99 | 90 | 12 | –
10 | O=C(N[C@@H](Cc1ccccc1)[C@H](O)CN1CCN(Cc2ccc3c(c2)OCO3)CC1)c1c(Cl)cccc1Cl | 55.5 | 100 | 90 | 84 | 43 | –
11 | O=S(=O)(N[C@@H](Cc1ccccc1)[C@H](O)CN1CCN(Cc2ccc3c(c2)OCO3)CC1)c1ccc(Br)cc1 | 5.6 | 100 | 100 | 96 | 5 | 5.7
12 | O=C(N[C@@H](Cc1ccccc1)[C@H](O)CN1CCN(Cc2ccc3c(c2)OCO3)CC1)c1ccccc1 | 69.4 | 100 | 100 | 91 | 38 | –
13 | O=C(N[C@@H](Cc1ccccc1)[C@H](O)CN1CCN(Cc2ccc3c(c2)OCO3)CC1)c1cc(Cl)cc(Cl)c1 | 47.2 | 98 | 100 | 98 | 93 | –
14 | Cc1ccc(S(=O)(=O)N[C@@H](Cc2ccccc2)[C@H](O)CN2CCN(Cc3ccc(N)cc3)CC2)cc1 | > 90 | 100 | 90 | 77 | 10 | –
15 | O=C(N[C@@H](Cc1ccccc1)[C@H](O)CN1CCN(Cc2ccc3c(c2)OCO3)CC1)c1c(F)cccc1F | 47.4 | 85 | 87 | 83 | 51 | –
16 | COc1ccc(CN2CCN(C[C@@H](O)[C@H](Cc3ccccc3)NS(=O)(=O)c3ccc(C)cc3)CC2)cc1OC | > 90 | 100 | 100 | 92 | 9 | –
17 | O=S(=O)(N[C@@H](Cc1ccccc1)[C@H](O)CN1CCN(Cc2ccc3c(c2)OCO3)CC1)c1ccc(F)cc1 | 42.5 | 100 | 94 | 83 | 4 | –
18 | COc1ccc(CN2CCN(C[C@@H](O)[C@H](Cc3ccccc3)NS(=O)(=O)c3ccc(C)cc3)CC2)cc1 | > 90 | 100 | 90 | 84 | 6 | –
19 | Cc1ccc(S(=O)(=O)N[C@@H](Cc2ccccc2)[C@H](O)CN2CCN(Cc3ccc4c(c3)OCO4)CC2)cc1 | 16.9 | 100 | 100 | 98 | 49 | –
